Test results: the supplement of paper PMC10307832

Tests used:
Assay in all cases: relative viability (nuclei count vs DMSO), 5 days (fraction); higher = more cells survive
[1] = compound: O=C(O)c1ccc2c(c1)nc(Nc1cccc(Cl)c1)c1ccncc12 [Silmitasertib] + CC1(C)CCC(c2ccc(Cl)cc2)=C(CN2CCN(c3ccc(C(=O)NS(=O)(=O)c4ccc(N[C@H](CCN5CCOCC5)CSc5ccccc5)c(S(=O)(=O)C(F)(F)F)c4)cc3)CC2)C1 [Navitoclax] (partner 0.5 µM)
In short: (§1)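 Relative viability was taken as the ratio of nuclei in treated wells to nuclei in vehicle wells. Lung cancer cell lines in 1536-well plates received compounds by pin tool one day after seeding, either one drug alone or a fixed anchor-drug dose plus five library-drug doses (not always all listed) in √10 steps. Nuclei were counted on 4× images after 5 days of treatment, and values are medians of duplicate plates.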

[2] = compound: O=C(O)c1ccc2c(c1)nc(Nc1cccc(Cl)c1)c1ccncc12 [Silmitasertib] + COc1cc2c(Oc3ccc(NC(=O)C4(C(=O)Nc5ccc(F)cc5)CC4)cc3F)ccnc2cc1OCCCN1CCOCC1 [Foretinib] (partner 0.25 µM)
In short: as §1

[3] = compound: O=C(O)c1ccc2c(c1)nc(Nc1cccc(Cl)c1)c1ccncc12 [Silmitasertib] + Cc1cc(Nc2cc(N3CCN(C)CC3)nc(Sc3ccc(NC(=O)C4CC4)cc3)n2)n[nH]1 [Tozasertib] (partner 0.1 µM)
In short: as §1

[4] = compound: O=C(O)c1ccc2c(c1)nc(Nc1cccc(Cl)c1)c1ccncc12 [Silmitasertib] + Cc1nc(Nc2ncc(C(=O)Nc3c(C)cccc3Cl)s2)cc(N2CCN(CCO)CC2)n1 [Dasatinib] (partner 0.075 µM)
In short: as §1

[5] = compound: O=C(O)c1ccc2c(c1)nc(Nc1cccc(Cl)c1)c1ccncc12 [Silmitasertib] + Nc1ncn([C@H]2C[C@H](O)[C@@H](CO)O2)c(=O)n1 [Decitabine] (partner 2 µM)
In short: as §1

Cell Line	relative viability ([1]; first compound 0.04 µM)	relative viability ([1]; first compound 0.4 µM)	relative viability ([1]; first compound 1.265 µM)	relative viability ([1]; first compound 4 µM)	relative viability ([2]; first compound 0.04 µM)	relative viability ([2]; first compound 0.4 µM)	relative viability ([2]; first compound 1.265 µM)	relative viability ([2]; first compound 4 µM)	relative viability ([3]; first compound 0.04 µM)	relative viability ([3]; first compound 0.4 µM)	relative viability ([3]; first compound 1.265 µM)	relative viability ([3]; first compound 4 µM)	relative viability ([4]; first compound 0.04 µM)	relative viability ([4]; first compound 0.4 µM)	relative viability ([4]; first compound 1.265 µM)	relative viability ([4]; first compound 4 µM)	relative viability ([5]; first compound 0.04 µM)	relative viability ([5]; first compound 0.4 µM)	relative viability ([5]; first compound 1.265 µM)	relative viability ([5]; first compound 4 µM)
NCI-H1793	0.46	0.315	0.395	0.311	0.757	0.62	0.427	0.607	0.392	0.297	0.2	0.331	0.382	0.324	0.357	0.393	0.499	0.458	0.493	0.419
NCI-H1915	0.839	–	0.888	0.64	1.13	–	1.05	0.991	0.487	–	0.38	0.283	0.32	–	0.332	0.192	0.266	–	0.259	0.253
NCI-H1944	0.976	0.732	1.06	1.27	0.924	0.768	0.92	1	0.259	0.266	0.237	0.308	0.229	0.235	0.227	0.224	0.442	0.467	0.46	0.497
NCI-H1975	1.04	0.699	1.06	0.716	0.883	–	0.802	0.83	0.942	–	0.514	0.308	0.401	–	0.324	0.432	0.455	–	0.277	0.401
NCI-H1993	1.07	0.933	0.631	0.749	0.817	0.652	0.651	0.65	0.622	0.523	0.522	0.53	0.652	0.502	0.52	0.586	0.544	0.494	0.552	0.514
NCI-H2009	1.15	1.09	1.19	0.788	1.34	1.16	1.13	0.897	0.817	0.839	0.719	0.474	0.35	0.297	0.246	0.218	0.382	0.39	0.392	0.371
NCI-H2023	0.999	1.01	0.96	0.73	0.886	0.75	0.551	0.707	0.46	0.321	0.24	0.252	0.547	0.443	0.548	0.416	0.239	0.225	0.208	0.195
NCI-H2085	1.15	0.942	0.933	0.874	0.918	–	0.952	0.861	0.82	0.737	0.602	0.533	0.253	0.233	0.245	0.265	0.594	0.553	0.553	0.459
NCI-H2087	1.11	0.855	0.689	0.319	1.22	–	0.741	0.806	0.264	–	0.152	0.132	0.828	–	0.695	0.308	0.414	0.286	0.181	0.199
NCI-H2126	0.897	0.847	0.81	0.745	1.21	–	1.03	1.07	0.845	0.759	0.793	0.709	0.602	0.584	0.573	0.539	0.585	0.631	0.497	0.508
NCI-H2170	0.614	0.339	0.446	0.433	1.01	0.881	0.916	1.01	0.673	0.478	0.713	0.65	0.61	0.502	0.676	0.598	0.477	0.46	0.457	0.441
NCI-H2347	0.891	0.692	0.745	0.665	0.612	0.762	0.885	0.561	0.663	–	0.56	0.419	0.581	–	0.313	0.254	0.637	0.558	0.606	0.579
NCI-H2405	1.26	0.68	0.596	0.706	1.02	0.887	0.967	0.964	0.772	0.526	0.652	0.665	0.221	0.209	0.222	0.236	0.779	0.735	0.716	0.794
NCI-H3122	1.01	0.996	1.01	1.08	0.821	0.86	0.982	0.947	0.427	0.41	0.334	0.305	0.807	0.706	0.84	0.834	0.514	0.337	0.416	0.511
PC-3 [JPC-3]	0.746	0.688	0.773	0.775	1.12	0.852	1.14	0.998	0.971	0.69	0.86	0.835	1.04	0.628	1.03	0.899	0.968	0.846	0.836	0.723
PC-14	1.12	1.09	1.07	1.11	1.05	1.02	0.965	0.461	0.668	–	0.595	0.532	0.273	0.236	0.293	0.388	0.265	0.214	0.271	0.192
RERF-LC-KJ	0.863	0.85	0.782	0.436	0.887	0.753	0.765	0.628	0.546	0.531	0.382	0.248	0.879	0.735	0.393	0.435	0.766	0.627	0.455	0.344
